Test results: PMC6851657 (Clinical Pharmacology and Therapeutics, 2019)
Read-outs that look alike come from different tables or passages of the source. Marks after values point to notes of the source that are not given here.

What was measured:
[1] = day 28, observed, cited from earlier work; for AUC(0–24 h) / Cmin: GM (CV%); for Cmax: GM (CV%; 90% CI)
CYP3A4 [2] = molecular target: T1, CYP3A4 (Homo sapiens, UniProt P08684); experiment: Enzyme phenotyping, intrinsic clearance by retrograde calculation; type: in vitro ADME
[3] = cited from earlier work; for t1/2 / AUCinf / Cmax / Tmax: observed; for t1/2: GM (CV%); for AUCinf / Cmax: GM (CV%; 90% CI); for Tmax: median (range)
CYP2C9 = CYP2C9 (Homo sapiens, UniProt P11712); conditions: cited from earlier work
CYP2C8 = molecular target: T2, CYP2C8 (Homo sapiens, UniProt P10632); experiment: Enzyme phenotyping, intrinsic clearance by retrograde calculation; type: in vitro ADME
T2 sequence (P10632 1-490): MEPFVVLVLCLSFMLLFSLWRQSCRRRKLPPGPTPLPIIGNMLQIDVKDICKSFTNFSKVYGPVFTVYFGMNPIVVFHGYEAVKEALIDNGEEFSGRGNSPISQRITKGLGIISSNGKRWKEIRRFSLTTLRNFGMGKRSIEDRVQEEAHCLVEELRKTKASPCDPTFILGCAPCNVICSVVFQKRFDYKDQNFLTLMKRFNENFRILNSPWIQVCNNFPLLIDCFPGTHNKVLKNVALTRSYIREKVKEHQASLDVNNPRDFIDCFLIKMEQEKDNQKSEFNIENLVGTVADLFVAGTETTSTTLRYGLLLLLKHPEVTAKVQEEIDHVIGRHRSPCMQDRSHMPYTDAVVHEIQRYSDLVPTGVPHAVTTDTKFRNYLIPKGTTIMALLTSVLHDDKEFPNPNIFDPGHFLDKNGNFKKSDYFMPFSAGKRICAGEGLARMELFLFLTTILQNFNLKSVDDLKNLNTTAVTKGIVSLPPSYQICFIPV

[4] = single oral 0.25 mg, observed, cited from earlier work
CYP3A4 [5] = molecular target: T1, CYP3A4; conditions: in vitro phenotyping, normalized to 100%; cited from earlier work
[6] = cited from earlier work
CYP2B6 = molecular target: T3, CYP2B6 (Homo sapiens, UniProt P20813); experiment: Enzyme phenotyping, intrinsic clearance by retrograde calculation; type: in vitro ADME
T3 sequence (P20813 1-491): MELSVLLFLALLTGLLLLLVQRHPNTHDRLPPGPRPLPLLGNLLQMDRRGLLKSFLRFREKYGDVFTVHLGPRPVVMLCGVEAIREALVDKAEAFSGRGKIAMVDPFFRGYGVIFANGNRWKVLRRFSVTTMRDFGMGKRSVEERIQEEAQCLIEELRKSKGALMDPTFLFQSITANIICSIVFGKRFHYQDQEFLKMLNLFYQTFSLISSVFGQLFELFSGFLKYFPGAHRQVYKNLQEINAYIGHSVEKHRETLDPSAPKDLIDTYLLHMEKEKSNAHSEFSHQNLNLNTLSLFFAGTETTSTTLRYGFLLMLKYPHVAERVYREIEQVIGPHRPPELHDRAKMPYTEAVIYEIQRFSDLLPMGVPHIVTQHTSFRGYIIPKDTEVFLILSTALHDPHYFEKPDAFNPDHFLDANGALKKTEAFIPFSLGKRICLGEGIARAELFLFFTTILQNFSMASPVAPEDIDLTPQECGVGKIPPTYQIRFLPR

CYP2C19 = CYP2C19 (Homo sapiens, UniProt P33261); experiment: as above; type: in vitro ADME
[7] = observed, ref Novartis data on file, cited from earlier work; for AUCinf / Cmax / t1/2: GM (CV%; range)
[8] = 0.3 mg solution p.o. single dose
[9] = 2.5 mg capsule p.o. single dose
[10] = 2.5 mg solution p.o. single dose
[11] = 17.5 mg capsule p.o. single dose

T1 sequence (P08684 whole entry): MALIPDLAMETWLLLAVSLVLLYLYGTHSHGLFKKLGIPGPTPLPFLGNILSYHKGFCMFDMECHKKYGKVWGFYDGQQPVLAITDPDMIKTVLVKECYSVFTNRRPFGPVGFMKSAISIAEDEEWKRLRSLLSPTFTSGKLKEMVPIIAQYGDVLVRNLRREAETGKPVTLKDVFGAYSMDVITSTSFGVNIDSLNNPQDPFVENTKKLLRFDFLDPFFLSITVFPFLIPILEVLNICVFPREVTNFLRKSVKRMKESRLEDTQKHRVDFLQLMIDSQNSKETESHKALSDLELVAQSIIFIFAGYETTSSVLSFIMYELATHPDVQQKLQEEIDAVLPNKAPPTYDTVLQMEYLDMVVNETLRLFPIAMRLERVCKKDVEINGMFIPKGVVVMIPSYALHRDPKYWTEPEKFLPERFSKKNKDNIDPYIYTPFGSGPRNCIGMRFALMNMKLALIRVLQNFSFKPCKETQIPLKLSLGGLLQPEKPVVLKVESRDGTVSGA
Sequence of CYP2C9 (P11712 whole entry): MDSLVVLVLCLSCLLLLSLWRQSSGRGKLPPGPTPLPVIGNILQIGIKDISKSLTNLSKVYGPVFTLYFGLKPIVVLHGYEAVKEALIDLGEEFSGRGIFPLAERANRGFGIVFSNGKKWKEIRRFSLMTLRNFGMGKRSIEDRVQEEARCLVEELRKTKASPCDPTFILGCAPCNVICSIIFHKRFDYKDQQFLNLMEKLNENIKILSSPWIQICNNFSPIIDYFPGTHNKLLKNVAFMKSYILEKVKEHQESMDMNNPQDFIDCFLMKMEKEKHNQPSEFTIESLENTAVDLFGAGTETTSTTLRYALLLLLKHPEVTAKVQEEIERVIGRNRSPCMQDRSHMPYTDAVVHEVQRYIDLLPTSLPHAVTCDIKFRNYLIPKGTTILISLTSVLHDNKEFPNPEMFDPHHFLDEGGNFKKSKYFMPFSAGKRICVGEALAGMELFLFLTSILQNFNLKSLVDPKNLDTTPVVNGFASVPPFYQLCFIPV
Sequence of CYP2C19 (P33261 whole entry): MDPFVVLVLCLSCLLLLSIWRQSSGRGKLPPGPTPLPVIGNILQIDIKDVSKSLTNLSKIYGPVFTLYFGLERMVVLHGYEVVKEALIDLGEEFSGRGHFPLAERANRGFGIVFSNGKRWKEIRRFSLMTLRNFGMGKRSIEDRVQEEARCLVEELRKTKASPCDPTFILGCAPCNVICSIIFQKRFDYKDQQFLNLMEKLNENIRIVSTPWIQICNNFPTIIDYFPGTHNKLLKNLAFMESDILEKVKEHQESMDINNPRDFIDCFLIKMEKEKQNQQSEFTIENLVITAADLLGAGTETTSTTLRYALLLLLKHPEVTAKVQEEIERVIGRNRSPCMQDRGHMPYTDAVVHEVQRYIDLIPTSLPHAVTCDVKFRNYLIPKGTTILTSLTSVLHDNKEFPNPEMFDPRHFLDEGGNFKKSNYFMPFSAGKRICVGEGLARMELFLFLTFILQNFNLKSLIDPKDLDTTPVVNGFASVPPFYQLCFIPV

- CLint (CYP3A4) (CYP3A4 [2]): 5.607 µL/min/pmol
- fmCYP3A4 (CYP3A4 [2]; CYP2C9*1/*1): 0.175
- fmCYP3A4 (CYP3A4 [2]; CYP2C9*1/*2): 0.189
- fmCYP3A4 (CYP3A4 [2]; CYP2C9*1/*3): 0.287
- fmCYP3A4 (CYP3A4 [2]; CYP2C9*2/*2): 0.244
- fmCYP3A4 (CYP3A4 [2]; CYP2C9*2/*3): 0.343
- fmCYP3A4 (CYP3A4 [2]; fraction metabolized): 0.185
- CLint (CYP2C8) (CYP2C8): 2.941 µL/min/pmol
- fmCYP2C8 (CYP2C8; fraction metabolized): 0.017
- In vitro intrinsic clearance (CYP2B6) (CYP2B6): 0.733 µL/min/pmol
- fmCYP2B6 (CYP2B6; fraction metabolized): 0.004
- fmCYP2C19 (CYP2C19; fraction metabolized): 0.001
- CLint (CYP2C19) (CYP2C19; retrograde calculator from CL 3.12 L/hour, fu(mic) set to 1): 0.593 µL/min/pmol
Compound: CCc1cc(/C(C)=N/OCc2ccc(C3CCCCC3)c(C(F)(F)F)c2)ccc1CN1CC(C(=O)O)C1 [siponimod]
- AUC(0–24 h) ([1]; 0.3 mg solution p.o. q.d.): 97.9 (19) ng·hour/mL
- Cmin ([1]; 0.3 mg solution p.o. q.d.): 2.83 (27) ng/mL
- Cmax ([1]; 0.3 mg solution p.o. q.d.): 5.13 (16; 4.76–5.86) ng/mL
- AUC(0–24 h) ([1]; 1 mg solution p.o. q.d.): 282 (16) ng·hour/mL
- Cmin ([1]; 1 mg solution p.o. q.d.): 7.74 (20) ng/mL
- Cmax ([1]; 1 mg solution p.o. q.d.): 14.9 (10; 14.0–15.9) ng/mL
- AUC(0–24 h) ([1]; 2.5 mg capsule p.o. q.d.): 692 (45) ng·hour/mL
- Cmin ([1]; 2.5 mg capsule p.o. q.d.): 15.2 (120) ng/mL
- Cmax ([1]; 2.5 mg capsule p.o. q.d.): 38.3 (37; 29.1–47.4) ng/mL
- AUC(0–24 h) ([1]; 10 mg capsule p.o. q.d.): 2,580 (24) ng·hour/mL
- Cmin ([1]; 10 mg capsule p.o. q.d.): 70.6 (29) ng/mL
- Cmax ([1]; 10 mg capsule p.o. q.d.): 147 (24; 126–168) ng/mL
- AUC(0–24 h) ([1]; 20 mg capsule p.o. q.d.): 6,370 (23) ng·hour/mL
- Cmin ([1]; 20 mg capsule p.o. q.d.): 166 (88) ng/mL
- Cmax ([1]; 20 mg capsule p.o. q.d.): 359 (17; 325–394) ng/mL
- t1/2 [3, 8]: 33.21 (28) h
- AUCinf [3, 8]: 89.3 (20; 79.2–99.4) ng·hour/mL
- Cmax [3, 8]: 2.26 (6; 2.17–2.34) ng/mL
- Tmax [3, 8]: 5 (4.00–8.00) h
- t1/2 ([3]; 1 mg solution p.o. single dose): 45.7 (26) h
- AUCinf ([3]; 1 mg solution p.o. single dose): 349 (28; 292–406) ng·hour/mL
- Cmax ([3]; 1 mg solution p.o. single dose): 7.43 (42; 5.37–9.50) ng/mL
- Tmax ([3]; 1 mg solution p.o. single dose): 5 (4.00–15.7) h
- t1/2 [3, 9]: 29.3 (17) h
- AUCinf [3, 9]: 745 (25; 632–858) ng·hour/mL
- Cmax [3, 9]: 19.3 (19; 17.1–21.5) ng/mL
- Tmax [3, 9]: 6 (4.00–8.00) h
- t1/2 [3, 10]: 27.0 (22) h
- AUCinf [3, 10]: 766 (36; 598–935) ng·hour/mL
- Cmax [3, 10]: 21.9 (35; 16.7–27.0) ng/mL
- Tmax [3, 10]: 4 (3.00–8.00) h
- t1/2 ([3]; 5 mg capsule p.o. single dose): 31.3 (19) h
- AUCinf ([3]; 5 mg capsule p.o. single dose): 1,260 (20; 1,149–1,384) ng·hour/mL
- Cmax ([3]; 5 mg capsule p.o. single dose): 38.5 (21; 33.5–41.5) ng/mL
- Tmax ([3]; 5 mg capsule p.o. single dose): 3 (2.00–8.00) h
- t1/2 ([3]; 10 mg capsule p.o. single dose): 32.0 (17) h
- AUCinf ([3]; 10 mg capsule p.o. single dose): 2,710 (14; 2,507–2,915) ng·hour/mL
- Cmax ([3]; 10 mg capsule p.o. single dose): 77.3 (25; 64.8–89.7) ng/mL
- Tmax ([3]; 10 mg capsule p.o. single dose): 5 (3.82–16.0) h
- t1/2 [3, 11]: 42.3 (38) h
- AUCinf [3, 11]: 4,230 (25; 3,666–4,792) ng·hour/mL
- Cmax [3, 11]: 111 (32; 93.7–128.4) ng/mL
- Tmax [3, 11]: 4 (2.00–8.00) h
- t1/2 ([3]; 25 mg capsule p.o. single dose): 47.7 (20) h
- AUCinf ([3]; 25 mg capsule p.o. single dose): 8,140 (24; 6,987–9,302) ng·hour/mL
- Cmax ([3]; 25 mg capsule p.o. single dose): 217 (29; 180–254) ng/mL
- Tmax ([3]; 25 mg capsule p.o. single dose): 3.50 (1.50–12.0) h
- t1/2 ([3]; 75 mg capsule p.o. single dose): 56.7 (12) h
- Cmax ([3]; 75 mg capsule p.o. single dose): 491 (51; 346–637) ng/mL
- Tmax ([3]; 75 mg capsule p.o. single dose): 6 (2.00–24.00) h
- elimination half‐life (t1/2), range [3]: 22 to 38 h
- mean elimination half‐life (t1/2) [3]: ~ 30 hours
- fraction metabolized via CYP2C9 (fm,CYP2C9) (CYP2C9; in vitro phenotyping data): 0.79
- contribution of CYP2C9 to metabolism (CYP2C9; in vitro phenotyping, normalized to 100%): 79.3%
- AUCinf ([4]; CYP2C9*1/*1): 70.5 (21.2) ng·hour/mL
- t1/2 ([4]; CYP2C9*1/*1): 28.1 (18.5) h
- AUCinf ([4]; CYP2C9*2/*3): 144 (15.7) ng·hour/mL
- Cmax ([4]; CYP2C9*2/*3): 2.45 (13.1) ng/mL
- t1/2 ([4]; CYP2C9*2/*3): 50.9 (31.7) h
- AUCinf ([4]; CYP2C9*3/*3): 271 (22.4) ng·hour/mL
- Cmax ([4]; CYP2C9*3/*3): 2.35 (29.0) ng/mL
- t1/2 ([4]; CYP2C9*3/*3): 126 (12.7) h
- contribution of CYP3A4 to metabolism (CYP3A4 [5]): 18.5%
- Fraction available from dosage form ([6]; based on amount of siponimod excreted to feces): 0.91 ^c
- Absorption rate constant ([6]; estimated based on PopPK model, ref Novartis data on file): 0.687 ^d 1/hour
- AUCinf ([7]; 0.25 mg i.v. single dose): 80.1 (25.6; 47.7–125) ng·hour/mL
- Cmax ([7]; 0.25 mg i.v. single dose): 3.22 (19; 1.88–3.81) ng/mL
- t1/2 ([7]; 0.25 mg i.v. single dose): 27.4 (22.5; 20.1–47.7) h
- Tmax ([7]; 0.25 mg i.v. single dose, median (range)): 2.92 (2.92–2.92) h
- AUCinf ([7]; 0.25 mg p.o. single dose): 67.4 (26; 39.8–105) ng·hour/mL
- Cmax ([7]; 0.25 mg p.o. single dose): 1.71 (24; 0.920–2.30) ng/mL
- t1/2 ([7]; 0.25 mg p.o. single dose): 26.7 (22; 17.2–43.8) h
